Laboratory results published in PubChem BioAssay (NCI).
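These data come from cells grown in 96-well plates and exposed to compound for 48 hours at five concentrations. GI50 marks 50% less growth. The concentration for full growth arrest is given as TGI.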

Legend:
Experiment in all cases: NCI anticancer screen, dose series, 48 h
CAKI-1 renal = system: CAKI-1 renal
HOP-62 NSCLC = system: HOP-62 NSCLC
A549 NSCLC = system: A549 NSCLC
KM12 colon = system: KM12 colon
SK-MEL-5 melanoma = system: SK-MEL-5 melanoma
SK-MEL-2 melanoma = system: SK-MEL-2 melanoma
SNB-75 CNS = system: SNB-75 CNS
SN12C renal = system: SN12C renal
MOLT-4 leukemia = system: MOLT-4 leukemia
BT-549 breast = system: BT-549 breast

SMILES	GI50 (CAKI-1 renal)	TGI (CAKI-1 renal)	GI50 (HOP-62 NSCLC)	TGI (HOP-62 NSCLC)	GI50 (A549 NSCLC)	TGI (A549 NSCLC)	GI50 (KM12 colon)	TGI (KM12 colon)	GI50 (SK-MEL-5 melanoma)	TGI (SK-MEL-5 melanoma)	GI50 (SK-MEL-2 melanoma)	TGI (SK-MEL-2 melanoma)	GI50 (SNB-75 CNS)	TGI (SNB-75 CNS)	GI50 (SN12C renal)	TGI (SN12C renal)	GI50 (MOLT-4 leukemia)	TGI (MOLT-4 leukemia)	GI50 (BT-549 breast)	TGI (BT-549 breast)
Cn1ccnc1C(=O)/C=C/c1ccc(CC(=O)Nc2ccc(F)cc2)cc1	3140 nM	> 25 µM	4.68 µM	19 µM	6.43 µM	> 25 µM	1620 nM	5.52 µM	4450 nM	8.09 µM	7.01 µM	23.7 µM	3740 nM	> 25 µM	1.62 µM	6.26 µM	2320 nM	18.1 µM	1320 nM	6.01 µM
CC(C)NC(=O)OCc1c(COC(=O)NC(C)C)c(-c2ccc(Cl)c(Cl)c2)n2c1CCC2	–	42.2 µM	–	62 µM	–	29.6 µM	–	73.1 µM	–	> 81.7 µM	–	> 65.1 µM	–	61.7 µM	–	68.2 µM	–	34.8 µM	–	> 100 µM
COc1ccc(-c2nn(-c3cccc(NC(=O)c4cccc(C(F)(F)F)c4)c3)cc2-c2ccncc2)cc1Cl	2570 nM	> 100 µM	3.07 µM	> 100 µM	2.7 µM	> 100 µM	1350 nM	9.7 µM	1060 nM	4.4 µM	3 µM	13.2 µM	1170 nM	4.07 µM	5.06 µM	> 100 µM	2620 nM	> 100 µM	3140 nM	> 100 µM
Cc1[nH]nc2ccc3nc(-c4ccc5[nH]ncc5c4)c4c(c3c12)CCCC4	535 nM	12 µM	1.41 µM	15.1 µM	0.932 µM	12.4 µM	630 nM	13.6 µM	1920 nM	5 µM	0.476 µM	2.48 µM	1520 nM	7.28 µM	2.09 µM	12.7 µM	1920 nM	10.1 µM	1100 nM	8.8 µM
CC(=O)OC1Oc2cc(C)c(C)cc2-c2oc(=O)c(-c3ccc(F)cc3)cc21 (stereo not given)	15800 nM	> 100 µM	12.9 µM	72.5 µM	4.79 µM	> 100 µM	3550 nM	22.4 µM	3350 nM	17.2 µM	6.05 µM	41.3 µM	4340 nM	80.8 µM	9.78 µM	> 100 µM	3100 nM	12.1 µM	7760 nM	45.9 µM
O=C1NC(c2c(Cl)cccc2Cl)Nc2ccccc21 (stereo not given)	–	76.7 µM	–	> 100 µM	–	> 100 µM	–	43.7 µM	–	72.7 µM	–	> 100 µM	–	37.4 µM	–	> 100 µM	–	> 100 µM	–	> 100 µM
CC(C(=O)O)/C(=C\c1ccc2c(c1)OCO2)C(=O)O (stereo not given)	–	> 100 µM	–	> 100 µM	–	> 100 µM	–	> 100 µM	–	> 100 µM	–	> 100 µM	–	> 100 µM	–	> 100 µM	–	> 21.9 µM	–	> 100 µM
